# Structures can show the parent of a compound that is named as a salt. Where two headings read alike, the source gives them in different places.
# Key:
# [1] = antiallergic activity (general statement); conditions: compared with coumarin derivatives of Japanese Publication No. 64273/1975
# [2] = tested on: passive cutaneous anaphylaxis (PCA) mediated by homocytotropic antibodies (HTA); assay: passive cutaneous anaphylaxis (PCA) test, oral, in rats; format: in vivo, rat (Wistar); conditions: for minimal effective dose: Rattus norvegicus
# Protocol: With respect to the present 3-(1H-tetrazol-5-yl)coumarin derivatives, there was tested antiallergic activity concerning passive cutaneous anaphylaxis (PCA) mediated by homocytotropic antibodies (HTA) in rats.
# (i) Preparation of antisera
# 2,4-Dinitrophenyl-coupled ascaris extract (DNP-As) used as antigen, was prepared according to the methods of Strejan et al [cf. J. Immunol., Vol. 98, 893(1967)] and Eisen [cf. J. Amer. Chem. Soc., Vol. 75. 4593(1953)]. Antisera containing HTA were prepared in rats according to the method of Tada and Okumura [cf. J. Immunol., Vol. 106, 1002(1971)] as follows:
# Female wister rats weighing 180 to 200 g. were splenectomized and several days later immunized by injecting into all four footpads a total of 1 mg. of DNP-As mixed with 10^10 Bordetella pertussis. After 5 days, 0.5 mg. of DNP-As alone was injected subcutaneously into the back of rats. Eight days after the first immunization, blood was collected by aortic puncture under ether anaesthesea and antisera obtained by these procedures were pooled and stored at -80° C.
# The titer of the pooled autiserum was determined in rats by the 72 hr. PCA which method was described in the following item (ii), i.e. the highest dilution of antiserum producing a diameter of approximately 5 mm. was usually 1:500.
# (ii) Assessment of PCA in rats
# Normal wister rats weighing 140 to 160 g. were sensitized passively by injection intradermal on the shaved back skin 0.05 ml. of the diluted antisera (1:30). After 72 hours, the animals were injected intravenously 1 ml. of physiological salt solution containing 2 mg. DNP-As and 2.5 mg. Evans' blue.
# The present compounds to be tested were given orally 30 minutes before antigen challenge. The animals were exsanguinated 30 minutes after challenge with the antigens and the skins were exfoliated. The intensities of PCA were evaluated by measuring the amount of leaked dye. The amount of dye leaked as a result of PCA was extracted according to the method of Harada et al [cf. Jpn. J. Allergol., Vol. 15, 1(1966)] and measured photometrically.
# [3] = acute toxicity, oral, in mice; format: in vivo; conditions: mouse, in vivo, po
# Protocol: (§1) Moreover, the introduction of substituent groups such as an alkoxyl group, an alkenyloxy group and hydroxyl group to the 5, 6, 7 or 8 position of the coumarin ring brings the decrease of toxicity.
# (§2) With respect to the present 3-(1H-tetrazol-5-yl)coumarin derivatives, there was tested acute toxicity in mice.
# (§3) After normal female Slc: ddy mice 4 weeks old were purchased and fed preliminarily in this lavoratory for a week, these mice weighing 25-27 g. were used in the test. The present compounds to be tested, were suspended in a 10% gum arabic solution and administered orally […]. body weight to mice. Each dose level was given to a group of ten animals and the survivors were kept under observation for 6 days. The numbers of dead animals were counted and the LD50 values in mg./kg. body weight were calculated by the method of Litchfield-Wilcoxon.
# [4] = tested on: experimental asthma; assay: model of experimental asthma in animals; format: in vivo; conditions: oral administration
# [5] = tested on: mice; assay: acute toxicity, oral, in mice; format: in vivo; conditions: Table 4; oral, female Slc: ddy mice, 6 days observation, Litchfield-Wilcoxon; 8640 min
# Protocol: as §1, §2, §3
# [6] = po, read-out: MED (minimum effective dose)
# [7] = LD50 (50% lethal dose), Table 1, orally in mice
# [8] = read-out: MED (minimum effect dose)
# [9] = Table 4, oral, female Slc: ddy mice, 6 days observation, Litchfield-Wilcoxon, read-out: LD50
# [10] = Table 3, oral 30 minutes before antigen challenge, rats, lowest dose significantly decreasing leaked dye vs control, read-out: MED (minimum effect dose)
SMILES,"LD50 at 144 h [3, 9] [mg/kg]","minimal effective dose [2, 10] [mg/kg]",other results
O=c1oc2ccccc2cc1-c1nnn[nH]1,,,antiallergic activity [1]: stronger antiallergic activity
"Cc1c(-c2nnn[nH]2)c(=O)oc2c(Cl)cccc12 [Compound I, reference compound]",,,"minimal effective dose [2, 6]: 6.25 mg/kg; LD50 at 144 h [3, 7]: 1040 mg/kg"
"CCCCCOc1cccc2cc(-c3nnn[nH]3)c(=O)oc12 [Example 1, 8-n-Pentyloxy-3-(1H-tetrazol-5-yl)coumarin]",1330,,"minimal effective dose [2, 6]: 1.56 mg/kg; minimal effective dose [2, 8]: 1.56 mg/kg; LD50 at 144 h [3, 7]: 1330 mg/kg"
"CCCCOc1cc(C)cc2cc(-c3nnn[nH]3)c(=O)oc12 [Example 2, 8-n-Butoxy-6-methyl-3-(1H-tetrazol-5-yl)coumarin]",1870,,"minimal effective dose [2, 6]: 0.39 mg/kg; minimal effective dose [2, 8]: 0.39 mg/kg; LD50 at 144 h [3, 7]: 1870 mg/kg"
"COc1cccc2cc(-c3nnn[nH]3)c(=O)oc12 [Example 3, 8-Methoxy-3-(1H-tetrazol-5-yl)coumarin]",2000 to 3000,6.25,
"CCOc1cccc2cc(-c3nnn[nH]3)c(=O)oc12 [Example 4, 8-Ethoxy-3-(1H-tetrazol-5-yl)coumarin]",2500,,"minimal effective dose [2, 6]: 6.25 mg/kg; minimal effective dose [2, 8]: 6.25 mg/kg; LD50 at 144 h [3, 7]: 2500 mg/kg"
"CCCOc1cccc2cc(-c3nnn[nH]3)c(=O)oc12 [Example 5, 8-n-Propoxy-3-(1H-tetrazol-5-yl)coumarin]",2000 to 3000,6.25,
"CC(C)Oc1cccc2cc(-c3nnn[nH]3)c(=O)oc12 [Example 6, 8-Isopropoxy-3-(1H-tetrazol-5-yl)coumarin]",2250,,"minimal effective dose [2, 6]: 1.56 mg/kg; minimal effective dose [2, 8]: 1.56 mg/kg; LD50 at 144 h [3, 7]: 2250 mg/kg"
"CCCOc1ccc2cc(-c3nnn[nH]3)c(=O)oc2c1 [Example 7, 7-n-Propoxy-3-(1H-tetrazol-5-yl)coumarin]",2000 to 3000,6.25,
"CCCCOc1cccc2cc(-c3nnn[nH]3)c(=O)oc12 [Example 8, 8-n-Butoxy-3-(1H-tetrazol-5-yl)coumarin]",2380,,"minimal effective dose [2, 6]: 1.56 mg/kg; minimal effective dose [2, 8]: 1.56 mg/kg; LD50 at 144 h [3, 7]: 2380 mg/kg"
"CC(C)CCOc1cccc2cc(-c3nnn[nH]3)c(=O)oc12 [Example 9, 8-Isopentyloxy-3-(1H-tetrazol-5-yl)coumarin]",1000 to 2000,0.39,
"CCCCCCOc1cccc2cc(-c3nnn[nH]3)c(=O)oc12 [Example 10, 8-n-Hexyloxy-3-(1H-tetrazol-5-yl)coumarin]",2650,,"minimal effective dose [2, 6]: 1.56 mg/kg; minimal effective dose [2, 8]: 1.56 mg/kg; therapeutic effect in experimental asthma [4]: shows a therapeutic effect; LD50 at 144 h [3, 7]: 2650 mg/kg"
"CCCCCCCOc1cccc2cc(-c3nnn[nH]3)c(=O)oc12 [Example 11, 8-n-Heptyloxy-3-(1H-tetrazol-5-yl)coumarin]",2000 to 3000,1.56,
"CCCCCCCCCOc1cccc2cc(-c3nnn[nH]3)c(=O)oc12 [Example 12, 8-n-Nonyloxy-3-(1H-tetrazol-5-yl)coumarin]",2000 to 3000,6.25,
"CCCCCCCCCCCCOc1cccc2cc(-c3nnn[nH]3)c(=O)oc12 [Example 13, 8-n-Dodecyloxy-3-(1H-tetrazol-5-yl)coumarin]",2000 to 3000,6.25,
"CCCCCCCCCCCCCCCOc1cccc2cc(-c3nnn[nH]3)c(=O)oc12 [Example 14, 8-n-Pentadecyloxy-3-(1H-tetrazol-5-yl)coumarin]",2000 to 3000,6.25,
"CCCCCCCCCCCCCCCCCCOc1cccc2cc(-c3nnn[nH]3)c(=O)oc12 [Example 15, 8-n-Octadecyloxy-3-(1H-tetrazol-5-yl)coumarin]",2000 to 3000,6.25,

SMILES,"LD50 at 144 h [3, 9] [mg/kg]","minimal effective dose [2, 10] [mg/kg]",other results
"C=CCOc1cccc2cc(-c3nnn[nH]3)c(=O)oc12 [Example 16, 8-Allyloxy-3-(1H-tetrazol-5-yl)coumarin]",2000 to 3000,1.56,
"CC(C)=CCC/C(C)=C/COc1cccc2cc(-c3nnn[nH]3)c(=O)oc12 [Example 17, 8-Geranyloxy-3-(1H-tetrazol-5-yl)coumarin]",500 to 1000,6.25,
"CC(C)=CCCC(C)=CCCC(C)=CCOc1cccc2cc(-c3nnn[nH]3)c(=O)oc12 [Example 18, 8-Farnesyloxy-3-(1H-tetrazol-5-yl)coumarin]",1000 to 2000,6.25,
"O=c1oc2c(O)cccc2cc1-c1nnn[nH]1 [Example 19, 8-Hydroxy-3-(1H-tetrazol-5-yl)coumarin]",2000 to 3000,25,
"CCOc1cc(C)cc2cc(-c3nnn[nH]3)c(=O)oc12 [Example 20, 8-Ethoxy-6-methyl-3-(1H-tetrazol-5-yl)coumarin]",2360,,"minimal effective dose [2, 6]: 1.56 mg/kg; minimal effective dose [2, 8]: 1.56 mg/kg; LD50 at 144 h [3, 7]: 2360 mg/kg"
"CCCOc1cc(C)cc2cc(-c3nnn[nH]3)c(=O)oc12 [Example 21, 6-Methyl-8-n-propoxy-3-(1H-tetrazol-5-yl)coumarin]",1000 to 2000,1.56,
"Cc1cc(OC(C)C)c2oc(=O)c(-c3nnn[nH]3)cc2c1 [Example 22, 8-Isopropoxy-6-methyl-3-(1H-tetrazol-5-yl)coumarin]",2200,,"minimal effective dose [2, 6]: 1.56 mg/kg; minimal effective dose [2, 8]: 1.56 mg/kg; LD50 at 144 h [3, 7]: 2200 mg/kg"
"CCc1cc2cc(-c3nnn[nH]3)c(=O)oc2cc1OC [Example 23, 6-Ethyl-7-methoxy-3-(1H-tetrazol-5-yl)coumarin]",500 to 1000,1.56,
"COc1ccc2cc(-c3nnn[nH]3)c(=O)oc2c1C [Example 24, 7-Methoxy-8-methyl-3-(1H-tetrazol-5-yl)coumarin]",300 to 1000,6.25,
"COc1cc2cc(-c3nnn[nH]3)c(=O)oc2cc1C [Example 25, 6-Methoxy-7-methyl-3-(1H-tetrazol-5-yl)coumarin]",500 to 1000,12.5,
"C=CCOc1cc(C)cc2cc(-c3nnn[nH]3)c(=O)oc12 [Example 26, 8-Allyloxy-6-methyl-3-(1H-tetrazol-5-yl)coumarin]",2000 to 3000,1.56,
"Cc1cc(O)c2oc(=O)c(-c3nnn[nH]3)cc2c1 [Example 27, 8-Hydroxy-6-methyl-3-(1H-tetrazol-5-yl)coumarin]",2000 to 3000,12.5,
"COc1cc2oc(=O)c(-c3nnn[nH]3)cc2cc1CC=C(C)C [Example 28, 7-Methoxy-6-(3-methyl-2-butenyl)-3-(1H-tetrazol-5-yl)coumarin]",500 to 1000,1.56,
"CCOc1cc2oc(=O)c(-c3nnn[nH]3)cc2cc1CC=C(C)C [Example 29, 7-Ethoxy-6-(3-methyl-2-butenyl)-3-(1H-tetrazol-5-yl)coumarin]",500 to 1000,12.5,
"CCOc1cc(OCC)c2cc(-c3nnn[nH]3)c(=O)oc2c1 [Example 30, 5,7-Diethoxy-3-(1H-tetrazol-5-yl)coumarin]",2000 to 3000,12.5,
"CCCCOc1cccc2cc(-c3nnn[nH]3)c(=O)oc12 [Example 31, Sodium salt of 8-n-butoxy-3-(1H-tetrazol-5-yl)coumarin]",,,"MED (minimum effect dose) ([2]; Table 3, oral 30 minutes before antigen challenge, rats, lowest dose significantly decreasing leaked dye vs control): 1.56 mg/kg; LD50 [5]: 2470 mg/kg"
"Cc1ccc2oc(=O)c(-c3nnn[nH]3)c(C)c2c1 [J, reference compound]",,,"minimal effective dose [2, 6]: 25 mg/kg; LD50 at 144 h [3, 7]: 533 mg/kg"

# Reference: patent US4363812A, “3-(Tetrazol-5-yl), 4-methyl-8-alkoxy coumarins and anti-allergic compositions thereof” (priority 1978, dated 1982)
